Measured values taken from patent EP1988080A1, “Insecticidal substituted 2-aminoindanes” (Bayer CropScience AG, priority 2007, dated 2008).

Key:
[1] = logP determination (PhysData, logP^1); conditions: for PhysData (logP (HCOOH)): HPLC gradient method, acetonitrile/0.1% HCOOH, EEC-Directive 79/831, Annex V.A8; for logP^1: stated in preparation examples
Myzus persicae [2] = test: Myzus persicae-test (Spray application); assay type: in vivo; conditions: application rate of 500 g/ha; spray on Chinese cabbage leaf-disks, all instars
Protocol: Myzus persicae-test (Spray application)
(§1) To produce a suitable preparation of active compound, 1 part by weight of active compound is mixed with the stated amount of solvent and emulsifier, and the concentrate is diluted with emulsifier-containing water to the desired concentration.
Chinese cabbage (Brassica pekinensis) leaf-disks infected with all instars of the green peach aphid (Myzus persicae), are sprayed with a preparation of the active ingredient at the desired concentration.
(§2) After the specified period of time, mortality in % is determined. 100 % means that all aphids have been killed; o % means that none of the […] have been killed.

Phaedon cochleariae = test: Phaedon-test (spray application); assay type: in vivo; conditions: application rate of 500 g/ha; spray on Chinese cabbage leaf-disks, larvae
Protocol: Phaedon-test (spray application)
as §1
Chinese cabage (Brassica pekinesis) leafs-disks are treated by being sprayed with the preparation of the active compound of the desired concentration nd are, after drying, infested with mustard beetle larvae (Phaedon cochleariae).
(§3) After the specified period of time, mortality in % is determined. 100 % means that all spider mites have been killed; o % means that none of the […] have been killed.

Myzus persicae [3] = test: Myzus-test (oral); assay type: in vivo; conditions: oral (suction)
Protocol: as §1
Hollow-ware are located with all instars of the green peach aphid (Myzus persicae). The treatement is carried out by suction of the preparation of active compound of the desired concentration.
as §2

Tetranychus urticae = test: Tetranychus-test, OP-resistant (spray application); assay type: in vivo; conditions: spray on French bean
Protocol: Tetranychus-test, OP-resistant (spray application)
as §1
French bean (Phaseolus vulgaris) which are heavily infested with all stages of the two spotted spidermite (Tetranychus urticae), are sprayed with a preparation of the active ingredient at the desired concentration.
as §3

Boophilus microplus = test: Boophilus microplus-test (injection); assay type: in vivo; conditions: application rate of 20 µg/animal; injection in the abdomen
Protocol: Boophilus microplus-test (injektion)
as §1
The solution of the active compound is injected in the abdomen (Boophilus microplus); the animals are transferred into a cup and stayed in a rooming with an air condition.
After the specified period of time, the efficiany mortality in % is determined. 100 % means that no tick has lay fertile eggs.

[4] = Table I-1, cells marked (A) are 1H-NMR, not logP

With Fc1ccc2c(c1)CC(N=C1NCCO1)C2 (centres unmarked) [1-64] the “PhysData (logP^1)” value [1, 4] was 0.73.
For CCCCNC(=S)N1CCOC1=NC1Cc2ccccc2C1 [1-19], the “activity (mortality in %)” value (Myzus persicae [2]) was ≥ 80% and the “PhysData (logP^1)” value [1, 4] was 4.46.
In the case of CCCNC(=S)N1CCOC1=NC1Cc2ccccc2C1 [1-18], the “activity (mortality in %)” value (Myzus persicae [2]) was ≥ 80% and the “PhysData (logP^1)” value [1, 4] was 3.94.
In the case of CC(NC(=S)N1CCOC1=NC1Cc2ccccc2C1)c1ccccc1 (centres unmarked) [1-35], the “PhysData (logP^1)” value [1, 4] was 4.4.
With S=C(NCc1cccnc1)N1CCOC1=NC1Cc2ccccc2C1 [1-42] the “activity (mortality in %)” value (Myzus persicae [2]) was ≥ 80% and the chromatographic logP (physchem) was 2.
With COC(=O)CCCNC(=S)N1CCOC1=NC1Cc2ccccc2C1 [1-24] the “PhysData (logP^1)” value [1, 4] was 3.6.
In the case of S=C(Nc1ccccn1)N1CCOC1=NC1Cc2ccccc2C1 [1-50], the “activity (mortality in %)” value (Myzus persicae [2]) was ≥ 80%, the chromatographic logP (physchem) was 1.6 and the “activity (mortality in %)” value (Phaedon cochleariae) was ≥ 80%.
For S=C(NC1CC1)N1CCOC1=NC1Cc2ccccc2C1 [1-31], the “PhysData (logP^1)” value [1, 4] was 3.5.
In the case of COC(=O)CCNC(=S)N1CCOC1=NC1Cc2ccccc2C1 [1-22], the “activity (mortality in %)” value (Myzus persicae [2]) was ≥ 80% and the “PhysData (logP^1)” value [1, 4] was 3.2.
With COCCNC(=S)N1CCNC1=NC1Cc2ccccc2C1 [3-7] the “PhysData (logP (HCOOH))” value ([1]; Table I-3) was 1.46 and the “logP^1” value [1] was 1.46.
Work on Cc1ccc(CNC(=S)N2CCOC2=NC2Cc3ccccc3C2)cc1 [1-46] yielded a chromatographic logP (physchem) of 4.8.
For CCOC(=O)CC(C)NC(=S)N1CCOC1=NC1Cc2ccccc2C1 (centres unmarked) [1-23], the “activity (mortality in %)” value (Phaedon cochleariae) was ≥ 80% and the “PhysData (logP^1)” value [1, 4] was 4.0.
With COC(=O)C(NC(=S)N1CCOC1=NC1Cc2ccccc2C1)C(C)C (centres unmarked) [1-25] the “activity (mortality in %)” value (Myzus persicae [2]) was ≥ 80% and the “PhysData (logP^1)” value [1, 4] was 4.4.
In the case of S=C(NCc1ccccc1Cl)N1CCOC1=NC1Cc2ccccc2C1 [1-38], the chromatographic logP (physchem) was 4.9.
For O=C(NCCCl)NC1Cc2ccccc2C1 [4-1], the “activity (mortality in %)” value (Myzus persicae [2]) was ≥ 80%, the “PhysData (logP (HCOOH))” value ([1]; Table 1-4) was 1.92 and the “activity (mortality in %)” value (Myzus persicae [3]; application rate of 100 ppm) was ≥ 80%.
For c1ccc2c(c1)CC(NC1=NCCS1)C2 [2-1, 2-[2-(2,3-dihydro-1H-inden)-amino]-4,5-dihydrothiazole], the “PhysData (logP^1)” value ([1]; Table I-2) was 0.66.
For FC(F)(F)CNC(=S)N1CCOC1=NC1Cc2ccccc2C1 [1-6], the “activity (mortality in %)” value (Myzus persicae [2]) was ≥ 80% and the “PhysData (logP^1)” value [1, 4] was 4.28.
COc1ccc(CNC(=S)N2CCOC2=NC2Cc3ccccc3C2)cc1OC [1-48] showed a chromatographic logP (physchem) of 3.7.
Compound CC(NC(=S)N1CCOC1=NC1Cc2ccccc2C1)c1ccccc1Cl (centres unmarked) [1-44] has a chromatographic logP (physchem) of 5.2.
In the case of FC(F)(F)C1CCCC(NC(=S)N2CCOC2=NC2Cc3ccccc3C2)C1 (centres unmarked) [1-33], the chromatographic logP (physchem) was 4.7.
With CCNC(=S)N1CCOC1=NC1Cc2ccccc2C1 [1-5] the “activity (mortality in %)” value (Myzus persicae [2]) was ≥ 80% and the “PhysData (logP^1)” value [1, 4] was 3.46.
For S=C(NC1CCCC1)N1CCOC1=NC1Cc2ccccc2C1 [1-32], the “activity (mortality in %)” value (Myzus persicae [2]) was ≥ 80% and the chromatographic logP (physchem) was 4.74.
With COC(=O)CNC(=S)N1CCOC1=NC1Cc2ccccc2C1 [1-8] the “PhysData (logP^1)” value [1, 4] was 3.20 and the “activity (mortality in %)” value (Myzus persicae [3]; application rate of 20 ppm) was ≥ 80%.
S=C(NCCc1cccc(Cl)c1)N1CCOC1=NC1Cc2ccccc2C1 [1-120] gave a chromatographic logP (physchem) of 5.1.
Compound FC(F)(F)C1CCC(NC(=S)N2CCOC2=NC2Cc3ccccc3C2)CC1 (centres unmarked) [1-29] has a chromatographic logP (physchem) of 5.1.
With S=C(NCc1ccc2c(c1)OCO2)N1CCOC1=NC1Cc2ccccc2C1 [1-39] the “activity (mortality in %)” value (Myzus persicae [2]) was ≥ 80% and the chromatographic logP (physchem) was 4.1.
In the case of S=C(NCc1ccccc1)N1CCOC1=NC1Cc2ccccc2C1 [1-34], the “PhysData (logP^1)” value [1, 4] was 5.2.
For COCCNC(=S)N1CCSC1=NC1Cc2ccccc2C1 [2-7], the “PhysData (logP^1)” value ([1]; Table I-2) was 4.11.
With CCOC(=O)C(C)NC(=S)N1CCOC1=NC1Cc2ccccc2C1 (centres unmarked) [1-26] the “activity (mortality in %)” value (Myzus persicae [2]) was ≥ 80% and the “PhysData (logP^1)” value [1, 4] was 4.2.
In the case of S=C(NCC1CC1)N1CCOC1=NC1Cc2ccccc2C1 [1-16], the “activity (mortality in %)” value (Myzus persicae [2]) was ≥ 80% and the “PhysData (logP^1)” value [1, 4] was 3.24.
For S=C(NCCc1ccccc1)N1CCOC1=NC1Cc2ccccc2C1 [1-40], the “PhysData (logP^1)” value [1, 4] was 4.6.
In the case of CCC(CC)NC(=S)N1CCOC1=NC1Cc2ccccc2C1 [1-14], the “activity (mortality in %)” value (Myzus persicae [2]) was ≥ 80% and the “PhysData (logP^1)” value [1, 4] was 4.90.
S=C(NCCc1ccc(Cl)cc1)N1CCOC1=NC1Cc2ccccc2C1 [1-41] gave a chromatographic logP (physchem) of 5.1.
With COC(CNC(=S)N1CCOC1=NC1Cc2ccccc2C1)OC [1-12] the “activity (mortality in %)” value (Myzus persicae [2]) was ≥ 80%, the chromatographic logP (physchem) was 3.6 and the “activity (mortality in %)” value (Phaedon cochleariae) was ≥ 80%.
For O=C(NC(=S)N1CCOC1=NC1Cc2ccccc2C1)c1ccccc1 [1-11], the “PhysData (logP^1)” value [1, 4] was 3.11.
In the case of CCOC(=O)CNC(=S)N1CCSC1=NC1Cc2ccccc2C1 [2-8], the “PhysData (logP^1)” value ([1]; Table I-2) was 4.41.
Work on CC(NC(=S)N1CCOC1=NC1Cc2ccccc2C1)c1ccc(Cl)cc1 (centres unmarked) [1-43] yielded a chromatographic logP (physchem) of 5.3.
With S=C(NCc1ccc(Cl)cc1Cl)N1CCOC1=NC1Cc2ccccc2C1 [1-49] the chromatographic logP (physchem) was 5.7.
With CNC(=S)N1CCOC1=NC1Cc2ccccc2C1 [1-2] the “activity (mortality in %)” value (Myzus persicae [2]) was ≥ 80%, the “PhysData (logP^1)” value [1, 4] was 2.36 and the “logP^1” value [1] was 2.36. The “activity (mortality in %)” value (Myzus persicae [3]; application rate of 20 ppm) was ≥ 80%.
With S=C(NCc1cccc(Cl)c1)N1CCOC1=NC1Cc2ccccc2C1 [1-37] the “activity (mortality in %)” value (Myzus persicae [2]) was ≥ 80% and the chromatographic logP (physchem) was 4.9.
For COCCNC(=S)N1CCOC1=NC1Cc2ccccc2C1 [1-7], the “activity (mortality in %)” value (Myzus persicae [2]) was ≥ 80%, the chromatographic logP (physchem) was 3.25 and the “activity (mortality in %)” value (Tetranychus urticae; application rate of 500 g/ha) was ≥ 80%. The “efficiency (100 % means that no tick has lay fertile eggs)” value (Boophilus microplus) was ≥ 80%.
In the case of S=C(NCc1ccc(Cl)cc1)N1CCOC1=NC1Cc2ccccc2C1 [1-36], the “activity (mortality in %)” value (Myzus persicae [2]) was ≥ 80% and the chromatographic logP (physchem) was 4.9.
With CC(NC(=S)N1CCOC1=NC1Cc2ccccc2C1)c1cccc(Cl)c1 (centres unmarked) [1-45] the “activity (mortality in %)” value (Myzus persicae [2]) was ≥ 80% and the chromatographic logP (physchem) was 5.3.
With FC(F)(F)CNC(=S)N1CCSC1=NC1Cc2ccccc2C1 [2-6] the “PhysData (logP^1)” value ([1]; Table I-2) was 4.80 and the “logP^1” value [1] was 4.8.
In the case of CC(C)NC(=S)N1CCOC1=NC1Cc2ccccc2C1 [1-30], the “activity (mortality in %)” value (Myzus persicae [2]) was ≥ 80% and the “PhysData (logP^1)” value [1, 4] was 4.0.
For CNC(=S)N1CCSC1=NC1Cc2ccccc2C1 [2-2], the “PhysData (logP^1)” value ([1]; Table I-2) was 4.05.
In the case of c1ccc2c(c1)CC(N=C1NCCO1)C2 [1-1, 2-[2-(2,3-dihydro-1H-inden)-amino]-4,5-dihydrooxazole], the “activity (mortality in %)” value (Myzus persicae [2]) was ≥ 80%, the “PhysData (logP^1)” value [1, 4] was 0.81 and the “activity (mortality in %)” value (Tetranychus urticae; application rate of 100 g/ha) was ≥ 80%. For the same compound, the “activity (mortality in %)” value (Myzus persicae [3]; application rate of 20 ppm) was ≥ 80%.
With CC(=O)NC(=S)N1CCOC1=NC1Cc2ccccc2C1 [1-10] the “PhysData (logP^1)” value [1, 4] was 2.53.
For CCCC(C)NC(=S)N1CCOC1=NC1Cc2ccccc2C1 (centres unmarked) [1-13], the “activity (mortality in %)” value (Myzus persicae [2]) was ≥ 80%, the chromatographic logP (physchem) was 5 and the “activity (mortality in %)” value (Phaedon cochleariae) was ≥ 80%.
With c1ccc2c(c1)CC(NC1=NCCN1)C2 [3-1] the “PhysData (logP (HCOOH))” value ([1]; Table I-3) was 0.52.
In the case of CC(NC(=S)N1CCOC1=NC1Cc2ccccc2C1)C(F)(F)F (centres unmarked) [1-20], the “activity (mortality in %)” value (Myzus persicae [2]) was ≥ 80% and the “PhysData (logP^1)” value [1, 4] was 4.62.
With S=C(NCC1CCCO1)N1CCOC1=NC1Cc2ccccc2C1 (centres unmarked) [1-28] the “activity (mortality in %)” value (Myzus persicae [2]) was ≥ 80% and the chromatographic logP (physchem) was 3.6.
For C=CCNC(=S)N1CCOC1=NC1Cc2ccccc2C1 [1-17], the “activity (mortality in %)” value (Myzus persicae [2]) was ≥ 80% and the “PhysData (logP^1)” value [1, 4] was 3.75.
For CCC(NC(=S)N1CCOC1=NC1Cc2ccccc2C1)C(=O)OC (centres unmarked) [1-27], the “activity (mortality in %)” value (Myzus persicae [2]) was ≥ 80% and the “PhysData (logP^1)” value [1, 4] was 4.0.
With CC(C)CNC(=S)N1CCOC1=NC1Cc2ccccc2C1 [1-21] the “activity (mortality in %)” value (Myzus persicae [2]) was ≥ 80% and the “PhysData (logP^1)” value [1, 4] was 4.51.
Fc1ccc(CNC(=S)N2CCOC2=NC2Cc3ccccc3C2)cc1 [1-47] showed a chromatographic logP (physchem) of 4.4.
